Assay results taken from patent US12258547B2, “Cell culture plate, method for preparing thereof and method for detecting a substance” (UPM-Kymmene Corporation, priority 2019, dated 2025).
Counter-ions that a name gives are not always drawn.

Experiments:
[1] = tested on: BJ fibroblasts; experiment: Experiment 1: WST-1 viability of BJ fibroblast monoculture, direct exposure; conditions: for toxicity to BJ fibroblast monocultures: drug as such, without HepaRG treatment
Description: (§1) Cell viability/cytotoxicity was always investigated using WST-1 assay. The assay principle is based on the conversion of the tetrazolium salt WST-1 into a colored dye by mitochondrial dehydrogenase enzymes. The soluble salt is released into the media. Within a given time period, the reaction produces a color change which is directly proportional to the amount of mitochondrial dehydrogenase in a given culture. As a result, the assay actually measures the net metabolic activity of cells. Theoretically, this is reflective of cell number • the more cells, the more dehydrogenase available to reduce the reagent.
(§2) BJ cell suspension was prepared at a density of 40 000 cells/ml in BJ cell culture medium. 100 μl of this suspension was pipetted to a 96-well plate resulting in 4000 cells/well.
(§3) Selegiline and paracetamol dilutions were prepared on the day of use. First, 1 mg/ml stocks were prepared from both drugs, then 200 and 20 μg/ml dilutions were prepared from paracetamol stock, and 200, 20, 10, 5 and 2 μg/ml dilutions from selegiline stock. The stocks and dilutions were prepared in BJ chemical dilution medium. Selegiline toxicity was studied more extensively than paracetamol, because there was no previous data of selegiline toxicity to BJ fibroblasts. Instead, paracetamol toxicity to human BJ fibroblasts has been extensively studied.
(§4) BJ cell culture medium was removed from the cells by dumping and blotting the plate carefully on sterile towel. Immediately, 50 μl BJ cell culture medium was added to all wells, and then 50 μl test item dilutions (selegiline or paracetamol) or 50 μl vehicle control. […] BJ chemical dilution medium was used as vehicle control. […] One of the plates was incubated for 3 hrs and the other for 20 hrs.
(§5) After the 3-hours or 20 hrs incubation, 10 μl WST-1 reagent was added into the wells. The plate was incubated for 2 hrs, thereafter absorbance was read at 450 nm.
(§6) Blank values (contained all reagents, including drugs, but no cells) were subtracted from the absorbance data. […] The statistical difference between untreated control and treated cells was assessed using t-test (SigmaPiot).

[2] = tested on: BJ fibroblasts; experiment: Experiment 4: BJ cells exposed to direct or HepaRG-conditioned paracetamol, WST-1; type: cell-based, Human; conditions: 500 μg/ml, conditioned 20 hrs with HepaRG, 24 hrs exposure
Method: The HepaRG cells that were left from Experiment 3 were seeded to a 25 cm^2 cell culture flask, and cultured for 1 week. Medium (HepaRG induction medium) was renewed twice during the week.
The medium was removed from HepaRG cells (grown in a 25 cm^2 flask), and replaced by 2.5 ml of HepaRG TOX medium. Then 2.5 ml of 1 mg/ml paracetamol prepared in HepaRG TOX medium was added to the flask (final paracetamol concentration 500 μg/ml). HepaRG cells were incubated with paracetamol for 20 hrs.
The medium was removed from BJ cells, and replaced by 500 μg/ml paracetamol in BJ chemical dilution medium or 500 μg/ml HepaRG-conditioned-paracetamol in HepaRG TOX-medium. BJ chemical dilution medium and HepaRG TOX medium served as vehicle controls. All treatments were tested in 16 parallel wells. The exposure time was 24 hrs.
After the exposure, 10 μl WST-1 reagent was added to the wells. The plate was incubated for 2 hrs, and the absorbance was read at 450 nm.

[3] = tested on: BJ fibroblasts; experiment: Experiments 2-3: HepaRG/BJ co-culture separated by GrowDex barrier, dosing via HepaRG, WST-1, BJ side; conditions: for MEAN absorbance at 450 nm / MEDIAN absorbance at 450 nm / viability, % of control: BJ cells
Description: as §1, with “reagent. […]” for “reagent.”
(§7) The mean absorbances were calculated separately for each well and both sides of the barrier. The decision on the acceptability of the data was made individually for each well. The data of the well was accepted provided that the barrier functioned properly, i.e. the ratio of HepaRG and BJ absorbances at 450 nm was >2.0.
(§8) GrowDex barriers were prepared to split the wells of a 24-well plate into two “equally sized” compartments as follows. 250 μl GrowDex was pipetted to the wells (using positive displacement pipette) to construct the first layer of the barrier. The barriers were left to dry in the laminar hood for 1 hr with the lid open. Then a second layer was pipetted on the top of the first layer.
(§9) BJ cell suspension was prepared at a density of 70 000 cells/ml BJ cell culture medium, and 150 μl of this suspension was pipetted to the right side of the barriers resulting in 10 500 cells/well.
(§10) HepaRG suspension was prepared at a density of 2 million HepaRG cells/ml HepaRG® Thawing/Plating/General Purpose Medium 670. Medium was removed from the left side of the barrier. 150 μl HepaRG suspension, i.e., 300 000 cells was added to each well. The plate was gently agitated in back-and-forth and side-to-side manner, and the homogeneity of the cell distribution was ensured visually. The plate was placed back into cell culture incubator and the cells were let recover for 4 hrs before exposure.
(§11) Medium was carefully removed from the HepaRG cells (left side of the barrier), and replaced with 75 μl/well HepaRG TOX Medium/well. This was performed one well at a time.

[4] = Experiments 2-3: HepaRG/BJ co-culture separated by GrowDex barrier, dosing via HepaRG, WST-1, HepaRG side; type: cell-based; conditions: human
Method: (§12) The soluble salt is released into the media.
(§13) Eight barriers were prepared using this method. […] Four barriers were prepared using this method.
(§14) The plate was incubated for 1 hr.
(§15) This was performed one well at a time.
(§16) Absorbance was read using the Multipoint measurement.

[5] = tested on: HepaRG cells; experiment: as above; type: cell-based; conditions: for MEAN absorbance at 450 nm / MEDIAN absorbance at 450 nm / viability, % of control: HepaRG
Method: as §12, §13, §14, §15, §16

[6] = Experiment 1: WST-1 viability of BJ fibroblast monoculture, direct exposure; conditions: human
Description: as §1, §2, §3, §4, §5, §6

[7] = Experiments 2-3: HepaRG/BJ co-culture separated by GrowDex barrier, dosing via HepaRG, WST-1, BJ side; conditions: human, decrease of BJ viability, 10 μg/ml via HepaRG, 3 hrs
Description: as §1, with “reagent. […]” for “reagent.”
as §7, §8, §9, §10, §11

[8] = 250 μg/ml paracetamol via HepaRG, 4 hrs
[9] = 250 μg/ml paracetamol via HepaRG, 20 hrs
[10] = 500 μg/ml paracetamol via HepaRG, 4 hrs
[11] = 500 μg/ml paracetamol via HepaRG, 20 hrs
[12] = 1 μg/ml selegiline via HepaRG, 3 hrs
[13] = 5 μg/ml selegiline via HepaRG, 3 hrs
[14] = 10 μg/ml selegiline via HepaRG, 3 hrs

CC(=O)Nc1ccc(O)cc1 [paracetamol, Paracetamol]
increase of BJ cell viability ([1]; 500 μg/ml, 3 hrs exposure): ~9%
toxicity to BJ fibroblast monocultures [1]: not toxic
effect on viability of BJ fibroblasts ([1]; up to 500 μg/ml, 3 and 20 hrs): did not reduce the viability
effect of HepaRG-treatment on BJ fibroblast viability [2]: minor effect
increase of BJ cell viability ([3]; 250 μg/ml via HepaRG, 4 hrs): ~40%
increase of BJ viability ([3]; 250 μg/ml via HepaRG, 20 hrs): ~30%
effect on BJ cell viability ([3]; 500 μg/ml via HepaRG, short exposure (4 hrs)): did not affect cell viability
MEAN absorbance at 450 nm [3, 8]: 1.685
MEDIAN absorbance at 450 nm [3, 8]: 1.777
viability, % of control [3, 8]: 140.89 % of control
MEAN absorbance at 450 nm [3, 9]: 1.777
MEDIAN absorbance at 450 nm [3, 9]: 1.801
viability, % of control [3, 9]: 128.23 % of control
MEAN absorbance at 450 nm [3, 10]: 1.188
MEDIAN absorbance at 450 nm [3, 10]: 1.164
viability, % of control [3, 10]: 99.34 % of control
MEAN absorbance at 450 nm [3, 11]: 1.356
MEDIAN absorbance at 450 nm [3, 11]: 1.325
viability, % of control [3, 11]: 97.89 % of control
cytotoxicity at 4 h, 250 μg/ml ([4]; 250 μg/ml, 4 hrs, read-out: decrease of HepaRG viability): ~15%
cytotoxicity at 20 h, 500 μg/ml ([4]; highest concentration (500 μg/ml), 20 hrs, read-out: reduction of HepaRG viability): ~10%
effect on HepaRG cell viability ([5]; 500 μg/ml, short exposure (4 hrs)): did not affect cell viability
MEAN absorbance at 450 nm ([5]; 250 μg/ml paracetamol, 4 hrs): 3.571
MEDIAN absorbance at 450 nm ([5]; 250 μg/ml paracetamol, 4 hrs): 3.513
viability, % of control ([5]; 250 μg/ml paracetamol, 4 hrs): 85.58 % of control
MEAN absorbance at 450 nm ([5]; 250 μg/ml paracetamol, 20 hrs): 4.196
MEDIAN absorbance at 450 nm ([5]; 250 μg/ml paracetamol, 20 hrs): 4.239
viability, % of control ([5]; 250 μg/ml paracetamol, 20 hrs): 105.78 % of control
MEAN absorbance at 450 nm ([5]; 500 μg/ml paracetamol, 4 hrs): 4.074
MEDIAN absorbance at 450 nm ([5]; 500 μg/ml paracetamol, 4 hrs): 4.134
viability, % of control ([5]; 500 μg/ml paracetamol, 4 hrs): 97.65 % of control
MEAN absorbance at 450 nm ([5]; 500 μg/ml paracetamol, 20 hrs): 3.606
MEDIAN absorbance at 450 nm ([5]; 500 μg/ml paracetamol, 20 hrs): 3.771
viability, % of control ([5]; 500 μg/ml paracetamol, 20 hrs): 90.91 % of control

C#CCN(C)[C@H](C)Cc1ccccc1 [selegiline, Selegiline hydrochloride]
cytotoxicity at 500 μg/ml [6]: ~10%
toxicity to BJ fibroblast monocultures [1]: not toxic
increase of BJ fibroblast viability ([1]; lowest selegiline concentrations): ~10%
cytotoxicity at 3 h, 10 μg/ml [7]: ~25%
effect on BJ viability ([3]; 1 and 5 μg/ml via HepaRG, 3 hrs): seemed to increase
MEAN absorbance at 450 nm [3, 12]: 1.429
MEDIAN absorbance at 450 nm [3, 12]: 1.539
viability, % of control [3, 12]: 141.43 % of control
MEAN absorbance at 450 nm [3, 13]: 1.219
MEDIAN absorbance at 450 nm [3, 13]: 1.243
viability, % of control [3, 13]: 120.69 % of control
MEAN absorbance at 450 nm [3, 14]: 0.760
MEDIAN absorbance at 450 nm [3, 14]: 0.676
viability, % of control [3, 14]: 75.19 % of control
cytotoxicity at 3 h, 10 μg/ml ([4]; 10 μg/ml, 3 hrs, read-out: decrease of HepaRG viability): ~5%
effect on HepaRG viability ([5]; 1 and 5 μg/ml, 3 hrs): seemed to increase
MEAN absorbance at 450 nm ([5]; 1 μg/ml selegiline, 3 hrs): 3.486
MEDIAN absorbance at 450 nm ([5]; 1 μg/ml selegiline, 3 hrs): 3.794
viability, % of control ([5]; 1 μg/ml selegiline, 3 hrs): 114.23 % of control
MEAN absorbance at 450 nm ([5]; 5 μg/ml selegiline, 3 hrs): 3.344
MEDIAN absorbance at 450 nm ([5]; 5 μg/ml selegiline, 3 hrs): 3.588
viability, % of control ([5]; 5 μg/ml selegiline, 3 hrs): 109.57 % of control
MEAN absorbance at 450 nm ([5]; 10 μg/ml selegiline, 3 hrs): 2.892
MEDIAN absorbance at 450 nm ([5]; 10 μg/ml selegiline, 3 hrs): 3.078
viability, % of control ([5]; 10 μg/ml selegiline, 3 hrs): 94.77 % of control
